Measurements as given in patent US20230303599A1, “PRODRUGS OF PHOSPHONAMIDE NUCLEOTIDE ANALOGUES AND THEIR PHARMACEUTICAL USE” (priority 2020, published 2023).
Converted amounts (≈) assume the structure as drawn.

Tests used:
[1] = Cytotoxicity assay in MT-4 cells; type: cell-based; details: human, uninfected MT-4 cells, average of at least two independent experiments, read-out: MT4 CC50
Protocol: Compounds were tested in a high-throughput 384-well assay format for their ability to inhibit the replication of HIV-1 (IIIB) in MT-4 cells. Compounds were serially diluted (1:3) in DMSO on 384-well polypropylene plates and further diluted 200-fold into complete RPMI media (10% FBS, 1% P/S) using the Biotek Micro Flow and Labcyte ECHO acoustic dispenser. Each plate contained up to 8 test compounds, with negative (no drug) and positive (5 μM AZT) controls. MT-4 cells were pre-treated with 10 μL of either RPMI (mock-infected) or a fresh 1:250 dilution of HIV-1 IIIB concentrated virus stock. Infected and uninfected MT-4 cells were further diluted in complete RPMI media and added to each plate using a Micro Flow dispenser. After 5 days incubation in a humidified and temperature-controlled incubator (37° C.), Cell Titer Glo (Promega) was added to the assay plates and chemiluminescence read using an Envision plate-reader. EC50 values were defined as the compound concentration that causes a 50% decrease in luminescence signal and were calculated using a sigmoidal dose-response model to generate curve fits and are shown in Table 1.
Example 105: Cytotoxicity Assay in MT-4 Cells
Assays were performed as described in Example 104 except uninfected MT-4 cells were added to each well containing test compound. In addition, 10 μM puromycin was added to the last column of each assay plate to assess a base level of cytotoxicity.

[2] = Kinetic solubility analysis; type: physicochemical; details: 1× PBS, 24.2 °C, aqueous buffer, kinetic from dmso stock; pH 7.4 PBS, 1% DMSO, 24-hour incubation at ambient temperature
Protocol: Example 108: Kinetic Solubility Analysis
Buffer Preparation: 0.1 N HCl: Hydrochloric acid, 0.1 N standardized solution (MP Biomedicals part number 199569). 1×PBS, pH 7.4: Phosphate Buffered Saline (PBS) solution 10× (Fisher Bioreagent part number BP399-500) 50 mL was added to approximately 450 mL HPLC grade H2O. The volume of the solution was then adjusted to 500 mL for a total dilution factor of 1:10 and a final PBS concentration of 1×.
The final DMSO concentration was 1.0% (v/v) and maximum theoretical compound concentration is 100 μM (for compound stock concentration of 10 mM). The filter plate was sealed. Following 24-hour incubation at ambient temperature (24.2-27.5° C.), the samples were vacuum filtered and the filtrates were collected in a 96 well polypropylene plate for analysis. The collection plate was sealed for analysis. Filtrates were injected into the Antek 8060 chemiluminescent nitrogen detector for quantification. The results are reported in μM.
The filtrates were quantified with respect to this calibration curve. Each calculated solubility value was corrected for background nitrogen present in the DMSO and in the medium used to prepare the sample. All reported values for compounds containing adjacent nitrogen atoms in a ring structure were increased by approximately 25%.

Row | SMILES | CC50 at 5 days [1] | solubility kinetic at 24 h [2]
1 | C[C@H](Cn1cnc2c(N)ncnc21)OCP(=O)(NC(C)(C)C(=O)O[C@H]1CC[C@H](c2ccccc2)CC1)NC(C)(C)C(=O)O[C@H]1CC[C@H](c2ccccc2)CC1 [Example 93, Bis(trans-4-phenylcyclohexyl) 2,2′-((((((R)-1-(6-amino-9H-purin-9-yl)propan-2-yl)oxy)methyl)phosphoryl)bis(azanediyl))bis(2-methylpropanoate)] | 5.47 µM | 1 µg/mL (≈ 1.29 µM)
2 | CCCCCCOC(=O)C(C)(C)NP(=O)(CO[C@H](C)Cn1cnc2c(N)ncnc21)N[C@]1(C(=O)OCCCCCC)C[C@H]1CC (stereo partly drawn) [Example 16, Hexyl (1R,2R)-1-((((((R)-1-(6-amino-9H-purin-9-yl)propan-2-yl)oxy)methyl)((1-(hexyloxy)-2-methyl-1-oxopropan-2-yl)amino)phosphoryl)amino)-2-ethylcyclopropane-1-carboxylate] | 6.41 µM | 12 µg/mL (≈ 18.4 µM)
3 | CCCCCCOC(=O)C1(NP(=O)(CO[C@H](C)Cn2cnc3c(N)ncnc32)NC2(C(=O)OCCCCCC)CCC2)CCC1 [Example 19, Dihexyl 1,1′-(((((1-(6-amino-9H-purin-9-yl)propan-2-yl)oxy)methyl)phosphoryl)bis(azanediyl))(R)-bis(cyclobutane-1-carboxylate)] | 17.3 µM | 18 µg/mL (≈ 27.7 µM)
4 | CCCCCCOC(=O)C(NP(=O)(CO[C@H](C)Cn1cnc2c(N)ncnc21)NC(C(=O)OCCCCCC)(C1CC1)C1CC1)(C1CC1)C1CC1 [Example 64, Dihexyl 2,2′-(((((1-(6-amino-9H-purin-9-yl)propan-2-yl)oxy)methyl)phosphoryl)bis(azanediyl))(R)-bis(2,2-dicyclopropylacetate)] | 7.34 µM | < 1 µg/mL
5 | C[C@H](Cn1cnc2c(N)ncnc21)OCP(=O)(N[C@@](C)(Cc1ccccc1)C(=O)OCC1CCCCC1)N[C@@](C)(Cc1ccccc1)C(=O)OCC1CCCCC1 [Example 15, Bis(cyclohexylmethyl) 2,2′-((((((R)-1-(6-amino-9H-purin-9-yl)propan-2-yl)oxy)methyl)phosphoryl)bis(azanediyl))(2S,2'S)-bis(2-methyl-3-phenylpropanoate)] | 4.36 µM | 2 µg/mL (≈ 2.49 µM)
6 | C[C@H](Cn1cnc2c(N)ncnc21)OCP(=O)(NC(C)(C)C(=O)OC1CCC2(CCC2)CC1)NC(C)(C)C(=O)OC1CCC2(CCC2)CC1 (stereo partly drawn) [Example 63, Di(spiro[3.5]nonan-7-yl) 2,2′-(((((1-(6-amino-9H-purin-9-yl)propan-2-yl)oxy)methyl)phosphoryl)bis(azanediyl))(R)-bis(2-methylpropanoate)] | 2.22 µM | –
7 | CCCCCCOC(=O)C(C)(C)NP(=O)(CO[C@H](C)Cn1cnc2c(NC(=O)OCC(=O)OCc3oc(=O)oc3C)ncnc21)NC(C)(C)C(=O)OCCCCCC [Example 95, Dihexyl 2,2′-(((((1-(6-(((2-((5-methyl-2-oxo-1,3-dioxol-4-yl)methoxy)-2-oxoethoxy)carbonyl)amino)-9H-purin-9-yl)propan-2-yl)oxy)methyl)phosphoryl)bis(azanediyl))(R)-bis(2-methylpropanoate)] | 14.8 µM | 60 µg/mL (≈ 71.4 µM)
8 | CCCCCCOC(=O)C(C)(C)NP(=O)(CO[C@H](C)Cn1cnc2c(NC(=O)OC(C)(C)CC(=O)OCc3oc(=O)oc3C)ncnc21)NC(C)(C)C(=O)OCCCCCC [Example 101, Dihexyl 2,2′-(((((1-(6-((((2-methyl-4-((5-methyl-2-oxo-1,3-dioxol-4-yl)methoxy)-4-oxobutan-2-yl)oxy)carbonyl)amino)-9H-purin-9-yl)propan-2-yl)oxy)methyl)phosphoryl)bis(azanediyl))(R)-bis(2-methylpropanoate)] | 7.68 µM | 23 µg/mL (≈ 26.1 µM)
9 | CCCOC(=O)C(C)(C)NP(=O)(CO[C@H](C)Cn1cnc2c(N)ncnc21)NC(C)(C)C(=O)OCCC [Example 36, Dipropyl 2,2′-(((((1-(6-amino-9H-purin-9-yl)propan-2-yl)oxy)methyl)phosphoryl)bis(azanediyl))(R)-bis(2-methylpropanoate)] | 8.96 µM | 60 µg/mL (≈ 111 µM)
10 | C[C@H](Cn1cnc2c(N)ncnc21)OCP(=O)(NC(C)(C)C(=O)OC1CCCC1)NC(C)(C)C(=O)OC1CCCC1 [Example 34, Dicyclopentyl 2,2′-(((((1-(6-amino-9H-purin-9-yl)propan-2-yl)oxy)methyl)phosphoryl)bis(azanediyl))(R)-bis(2-methylpropanoate)] | 3.67 µM | 59 µg/mL (≈ 99.4 µM)
11 | CCCCCCOC(=O)C(C)(C)NP(=O)(CO[C@H](C)Cn1cnc2c(NC(=O)CCCC(=O)OCc3oc(=O)oc3C)ncnc21)NC(C)(C)C(=O)OCCCCCC [Example 99, (5-Methyl-2-oxo-1,3-dioxol-4-yl)methyl 5-[[9-[(2R)-2-[bis[(2-hexoxy-1,1-dimethyl-2-oxo-ethyl)amino]phosphorylmethoxy]propyl]purin-6-yl]amino]-5-oxo-pentanoate] | 17.2 µM | 25 µg/mL (≈ 29.3 µM)
12 | C[C@H](Cn1cnc2c(N)ncnc21)OCP(=O)(NC(C)(C)C(=O)OC1CCCCC1)NC(C)(C)C(=O)OC1CCCCC1 [Example 40, Dicyclohexyl 2,2′-(((((1-(6-amino-9H-purin-9-yl)propan-2-yl)oxy)methyl)phosphoryl)bis(azanediyl))(R)-bis(2-methylpropanoate)] | – | 57 µg/mL (≈ 91.7 µM)
13 | CCCCCCOC(=O)[C@@]1(NP(=O)(CO[C@H](C)Cn2cnc3c(N)ncnc32)N[C@]2(C(=O)OCCCCCC)C[C@H]2CC)C[C@H]1CC [Example 17, Dihexyl 1,1′-((((((R)-1-(6-amino-9H-purin-9-yl)propan-2-yl)oxy)methyl)phosphoryl)bis(azanediyl))(1R,1′R,2R,2′R)-bis(2-ethylcyclopropane-1-carboxylate)] | 8.85 µM | –
14 | CCCCOC(=O)C(C)(C)NP(=O)(CO[C@H](C)Cn1cnc2c(N)ncnc21)NC(C)(C)C(=O)OCCCC [Example 38, Dibutyl 2,2′-(((((1-(6-amino-9H-purin-9-yl)propan-2-yl)oxy)methyl)phosphoryl)bis(azanediyl))(R)-bis(2-methylpropanoate)] | – | 45 µg/mL (≈ 79 µM)
15 | CCCCCCOC(=O)C(C)(C)NP(=O)(CO[C@H](C)Cn1cnc2c(NC(=O)[C@H]3CCC(=O)O3)ncnc21)NC(C)(C)C(=O)OCCCCCC [Example 96, Dihexyl 2,2′-((((((R)-1-(6-((R)-5-oxotetrahydrofuran-2-carboxamido)-9H-purin-9-yl)propan-2-yl)oxy)methyl)phosphoryl)bis(azanediyl))bis(2-methylpropanoate)] | 11 µM | 92 µg/mL (≈ 125 µM)
16 | CCCCCCOC(=O)C(C)(C)NP(=O)(CO[C@H](C)Cn1cnc2c(N)ncnc21)NC(C)(C)C(=O)OCC(C)(C)OC (stereo partly drawn) [Example 79, Hexyl 2-((((((R)-1-(6-amino-9H-purin-9-yl)propan-2-yl)oxy)methyl)((1-(2-methoxy-2-methylpropoxy)-2-methyl-1-oxopropan-2-yl)amino)phosphoryl)amino)-2-methylpropanoate] | – | 68 µg/mL (≈ 108 µM)
17 | CCCCCCOC(=O)C(C)(C)NP(=O)(CO[C@H](C)Cn1cnc2c(N)ncnc21)NC(C)(C)C(=O)OC(C)C1CC1 (stereo partly drawn) [Example 81, 1-Cyclopropylethyl 2-((((((R)-1-(6-amino-9H-purin-9-yl)propan-2-yl)oxy)methyl)((1-(hexyloxy)-2-methyl-1-oxopropan-2-yl)amino)phosphoryl)amino)-2-methylpropanoate] | – | 61 µg/mL (≈ 100 µM)
18 | C[C@H](Cn1cnc2c(N)ncnc21)OCP(=O)(NC(C)(C)C(=O)OCCC(C)(C)C)NC(C)(C)C(=O)OCCC(C)(C)C [Example 8, Bis(3,3-dimethylbutyl) 2,2′-(((((1-(6-amino-9H-purin-9-yl)propan-2-yl)oxy)methyl)phosphoryl)bis(azanediyl))(R)-bis(2-methylpropanoate)] | – | 50 µg/mL (≈ 79.9 µM)
19 | CCCCCCOC(=O)C(C)(C)NP(=O)(CO[C@H](C)Cn1cnc2c(N)ncnc21)NC(C)(C)C(=O)OCC1(F)CC1 (stereo partly drawn) [Example 78, (1-Fluorocyclopropyl)methyl 2-((((((R)-1-(6-amino-9H-purin-9-yl)propan-2-yl)oxy)methyl)((1-(hexyloxy)-2-methyl-1-oxopropan-2-yl)amino)phosphoryl)amino)-2-methylpropanoate] | – | 60 µg/mL (≈ 97.8 µM)
